Results published in PubChem BioAssay AID2060512 (Molecular Pharmacology Branch, DTP, NCI, 2025).
Several values for one entry are separate records, joined by “and”; a condition that tells them apart may be missing. Equal entries are not always repeated.

Test system: 186277-243-T-J2-PDC complex spheroid viability
Test: Anticancer human tumor 186277-243-T-J2-PDC patient-derived colon adenocarcinoma cell line growth inhibition [GQUAD]
Details: for viability, T/C: stronger effect = lower value
Description: DNA G-quadruplex Stabilizer Agents in Combinations in Complex Spheroids
A high-throughput screen of multi-cell type tumor spheroids was designed to identify active combinations of DNA G-quadruplex stabilizer agents and targeted small molecules. Complex spheroids include a stromal component modeled by human endothelial cells (HUVEC) and fibroblasts modeled by human mesenchymal stem cells (MSCs). The concentration ranges selected for each drug and investigational agent were based upon clinically achievable concentrations if the clinical Cmax of the agent was known.
Compounds. The drugs and investigational agents: pidnarulex (CX-5461; NSC782164), APTO-253 (NSC789042), BRACO-19 (NSC847499), peposertib (NSC802822), ceralasertib (NSC780249), elimusertib (NSC800525), camonsertib (NSC841442), AZD-1390 (NSC803789), olaparib (NSC753686), talazoparib (NSC767125), ART-558 (NSC835418), sotorasib (NSC818433), MRTX-1133 (NSC836407), SN-38 (NSC673596), topotecan (NSC609699), etoposide (NSC141540), doxorubicin (NSC123127), gemcitabine (NSC613327), 5-fluorouracil (NSC19893), paclitaxel (NSC125973), vemurafenib (NSC761431), panobinostat (NSC761190), R-306465 (JNJ-16241199; NSC773264), adavosertib (NSC754352), TP-3654 (NSC805149), carboplatin (NSC241240), KSQ-4279 (NSC840948), and staurosporine (NSC755774) were obtained from the National Cancer Institute (NCI) Developmental Therapeutics Program Chemical Repository (34). The FDA-approved anticancer drug set is available from the NCI Developmental Therapeutics Program. […] The stock solutions were prepared in dimethyl sulfoxide (DMSO, Sigma-Aldrich, St. Louis, MO, cat. D2650) at 800-fold the tested concentration and stored at -70 degrees C prior to their use. All drugs and investigational agents were tested over a range starting from a high concentration at or near the clinical Cmax and decreasing in half-log increments. If the clinical Cmax for an agent had not been determined, the highest concentration tested was 10 microM.
2.3 Cell Culture. All cells were maintained in an incubator at 37 degrees C and 5% CO2 with 95% humidity. The PDC lines were cultured according to standard operating procedures established by the NCI PDMR. All PDCs were thawed and cultured in Matrigel-coated flasks prepared with a working solution of 1X Ham's F-12 nutrient mix, without supplementation (Invitrogen, cat. 11765054), 100 U/mL penicillin-streptomycin (Invitrogen, cat. 15140122), and 2.5% Matrigel (Corning Inc., cat. 354248) for the first three passages. The 857933-349-R-J2-PDC line was cultured in 6C/Colon 1B media, which includes advanced DMEM/F-12 (Thermo Fisher Scientific, cat. 12634028), 10 mM HEPES (Thermo Fisher Scientific, cat. 15630080), 1X GlutaMAX supplement (Thermo Fisher Scientific, cat. 35050061), 0.1 mg/mL primocin (InvivoGen, cat. ant-pm-2), 10% defined fetal bovine serum, heat inactivated (HyClone Laboratories Inc., cat. SH30070.03HI), 50% L-WRN conditioned media (ATCC, cat. CRL-3276), 1.25 mM N-Acetyl-L-cysteine (Sigma-Aldrich, cat. A9165), 10 mM nicotinamide (Sigma-Aldrich, cat. N0636), 1X B-27 supplement (Thermo Fisher Scientific, cat. 17504044), 1X N-2 supplement (Thermo Fisher Scientific, cat. 17502048), 10 microM Y-27632 dihydrochloride (Tocris Bioscience, cat. 1254), and 50 ng/mL human EGF recombinant protein (Thermo Fisher Scientific, cat. PHG0311). The 485176-168-R4-J1-PDC line was cultured in Panc media, which includes all 6C/Colon 1B media components plus 100 ng/mL human FGF-10 (Thermo Fisher Scientific, cat. 100-26), 500 nM SB-431542 (Selleckchem, cat. S1067), and gastrin (Tocris, cat. 3006).
[…]
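Also: spheroids exposed to drugs for 7 days.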
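For viability, T/C in this document: 100% = DMSO vehicle control viability.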

With `COc1ncnc(C2CC2)c1-c1ncc2cnn(Cc3ccc(-c4nc(C(F)(F)F)cn4C(C)C)cc3)c2n1` + CN(C)c1ccc(Nc2c3ccc(NC(=O)CCN4CCCC4)cc3nc3cc(NC(=O)CCN4CCCC4)ccc23)cc1 as the compound, how does the IC50 (curve of first compound, second compound 0.0316 µM) read?
The IC50 was > 10000 nM.

What about the IC50 (curve of first compound, second compound 0.1 µM) of the same compound?
Its IC50 is > 10000 nM.

And the IC50 (curve of first compound, second compound 0.316 µM)?
Its IC50 is > 10000 nM.

What about the IC50 (curve of first compound, second compound 1 µM) of the same compound?
Its IC50 is > 10000 nM.

And the IC50 (curve of first compound, second compound 3.16 µM)?
The IC50 was > 10000 nM.

What about the IC50 (curve of first compound, second compound 10 µM) of the same compound?
The IC50 was > 10000 nM.

What about the viability, T/C (second compound 0.0316 µM, first compound 0.0316 µM) of the same compound?
The viability, T/C was 106%.

What about the viability, T/C (second compound 0.0316 µM, first compound 0.1 µM) of the same compound?
Its viability, T/C is 102%.

What about the viability, T/C (second compound 0.0316 µM, first compound 0.316 µM) of the same compound?
Its viability, T/C is 101%.

And the viability, T/C (second compound 0.0316 µM, first compound 1 µM)?
Its viability, T/C is 101%.

And the viability, T/C (second compound 0.0316 µM, first compound 3.16 µM)?
Its viability, T/C is 106%.

And the viability, T/C (second compound 0.0316 µM, first compound 10 µM)?
The viability, T/C was 98.1%.

What about the viability, T/C (second compound 0.1 µM, first compound 0.0316 µM) of the same compound?
Its viability, T/C is 102%.

And the viability, T/C (second compound 0.1 µM, first compound 0.1 µM)?
The viability, T/C was 93.2%.

What about the viability, T/C (second compound 0.1 µM, first compound 0.316 µM) of the same compound?
The viability, T/C was 105%.

What about the viability, T/C (second compound 0.1 µM, first compound 1 µM) of the same compound?
Its viability, T/C is 94.8%.

And the viability, T/C (second compound 0.1 µM, first compound 3.16 µM)?
The viability, T/C was 99%.

What about the viability, T/C (second compound 0.1 µM, first compound 10 µM) of the same compound?
The viability, T/C was 98.2%.

What about the viability, T/C (second compound 0.316 µM, first compound 0.0316 µM) of the same compound?
Its viability, T/C is 92.8%.

And the viability, T/C (second compound 0.316 µM, first compound 0.1 µM)?
The viability, T/C was 110%.

What about the viability, T/C (second compound 0.316 µM, first compound 0.316 µM) of the same compound?
The viability, T/C was 105%.

What about the viability, T/C (second compound 0.316 µM, first compound 1 µM) of the same compound?
Its viability, T/C is 98.7%.

What about the viability, T/C (second compound 0.316 µM, first compound 3.16 µM) of the same compound?
Its viability, T/C is 103%.

What about the viability, T/C (second compound 0.316 µM, first compound 10 µM) of the same compound?
The viability, T/C was 85.6%.

And the viability, T/C (second compound 1 µM, first compound 0.0316 µM)?
The viability, T/C was 100%.

And the viability, T/C (second compound 1 µM, first compound 0.1 µM)?
Its viability, T/C is 114%.

And the viability, T/C (second compound 1 µM, first compound 0.316 µM)?
The viability, T/C was 101%.

What about the viability, T/C (second compound 1 µM, first compound 1 µM) of the same compound?
Its viability, T/C is 107%.

And the viability, T/C (second compound 1 µM, first compound 3.16 µM)?
The viability, T/C was 112%.

And the viability, T/C (second compound 1 µM, first compound 10 µM)?
The viability, T/C was 84.3%.

And the viability, T/C (second compound 3.16 µM, first compound 0.0316 µM)?
Its viability, T/C is 99.1%.

What about the viability, T/C (second compound 3.16 µM, first compound 0.1 µM) of the same compound?
The viability, T/C was 98%.

What about the viability, T/C (second compound 3.16 µM, first compound 0.316 µM) of the same compound?
The viability, T/C was 113%.

And the viability, T/C (second compound 3.16 µM, first compound 1 µM)?
Its viability, T/C is 108%.

And the viability, T/C (second compound 3.16 µM, first compound 3.16 µM)?
Its viability, T/C is 118%.

What about the viability, T/C (second compound 3.16 µM, first compound 10 µM) of the same compound?
The viability, T/C was 95%.

And the viability, T/C (second compound 10 µM, first compound 0.0316 µM)?
The viability, T/C was 111%.

And the viability, T/C (second compound 10 µM, first compound 0.1 µM)?
The viability, T/C was 116%.

What about the viability, T/C (second compound 10 µM, first compound 0.316 µM) of the same compound?
Its viability, T/C is 106%.

And the viability, T/C (second compound 10 µM, first compound 1 µM)?
The viability, T/C was 99.2%.

What about the viability, T/C (second compound 10 µM, first compound 3.16 µM) of the same compound?
Its viability, T/C is 105%.

What about the viability, T/C (second compound 10 µM, first compound 10 µM) of the same compound?
Its viability, T/C is 53.8%.

Which results are given for `C=CCn1c(=O)c2cnc(Nc3ccc(N4CCN(C)CC4)cc3)nc2n1-c1cccc(C(C)(C)O)n1`?
viability, T/C (compound 0.0316 µM): 117% and 101% and 93.2%; viability, T/C (compound 0.1 µM): 73.4% and 86.2% and 76.1%; viability, T/C (compound 0.316 µM): 13.5% and 16.9% and 22.7%; viability, T/C (compound 1 µM): 9.12% and 11.3% and 11.6%; viability, T/C (compound 3.16 µM): 8.45% and 9.04% and 11%; viability, T/C (compound 10 µM): 10.8% and 11.9% and 14.4%; IC50 (curve of compound): 157 nM and 182 nM and 175 nM

What does the source list for `CCc1c2c(nc3ccc(O)cc13)-c1cc3c(c(=O)n1C2)COC(=O)[C@]3(O)CC`?
viability, T/C (compound 0.000999 µM): 88.2% and 83.6% and 97.2%; viability, T/C (compound 0.00316 µM): 72.1% and 57.3% and 65.1%; viability, T/C (compound 0.00999 µM): 50.2% and 50.4% and 45.2%; viability, T/C (compound 0.0316 µM): 30.8% and 29.4% and 34.3%; viability, T/C (compound 0.0999 µM): 21.3% and 14.5% and 21.4%; viability, T/C (compound 0.316 µM): 18.9% and 11.2% and 16.2%; IC50 (curve of compound): 9.82 nM and 7.08 nM and 7.82 nM
